From US20080124741A1, “Canine Cholecystokinin 1 Receptor Materials And Their Use” (priority 2004, published 2008)
Where two headings read alike, the source gives them in different places. Square brackets hold non-standard residues; d marks the D form. Ends that are not written are not given here. sY = N[C@@H](Cc1ccc(OS(=O)(=O)O)cc1)C(=O)O

Tests used:
[1] = molecular target: T1, canine CCK2 receptor (Canis lupus familiaris, UniProt P30552); test: competition binding of [125I]-BH-CCK-8S at canine CCK2 receptor
T1 sequence (P30552 1-453): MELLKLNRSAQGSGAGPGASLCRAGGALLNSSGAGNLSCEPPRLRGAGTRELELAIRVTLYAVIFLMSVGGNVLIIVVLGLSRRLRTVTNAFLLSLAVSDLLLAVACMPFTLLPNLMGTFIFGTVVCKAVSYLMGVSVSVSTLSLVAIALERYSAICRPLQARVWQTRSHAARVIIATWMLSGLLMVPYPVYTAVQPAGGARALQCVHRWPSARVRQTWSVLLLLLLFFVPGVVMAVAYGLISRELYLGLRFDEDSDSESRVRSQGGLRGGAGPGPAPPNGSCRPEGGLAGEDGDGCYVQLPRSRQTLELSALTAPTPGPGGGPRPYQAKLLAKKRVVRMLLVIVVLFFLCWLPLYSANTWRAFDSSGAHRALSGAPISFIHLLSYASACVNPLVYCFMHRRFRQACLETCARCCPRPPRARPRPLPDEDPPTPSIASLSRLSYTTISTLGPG

[2] = molecular target: T2, Canine CCK1: Wild-type (Canis lupus familiaris, UniProt Q5D0K2); test: competition binding at wild-type canine CCK1 receptor transiently transfected in HEK cells; details: n = 3, ± s.e. mean
T2 construct: The ORF encodes a 428 amino-acid protein; expressed in transfected cells; host or cells: HEK-293 cells, transient
T2 sequence (Q5D0K2 1-428): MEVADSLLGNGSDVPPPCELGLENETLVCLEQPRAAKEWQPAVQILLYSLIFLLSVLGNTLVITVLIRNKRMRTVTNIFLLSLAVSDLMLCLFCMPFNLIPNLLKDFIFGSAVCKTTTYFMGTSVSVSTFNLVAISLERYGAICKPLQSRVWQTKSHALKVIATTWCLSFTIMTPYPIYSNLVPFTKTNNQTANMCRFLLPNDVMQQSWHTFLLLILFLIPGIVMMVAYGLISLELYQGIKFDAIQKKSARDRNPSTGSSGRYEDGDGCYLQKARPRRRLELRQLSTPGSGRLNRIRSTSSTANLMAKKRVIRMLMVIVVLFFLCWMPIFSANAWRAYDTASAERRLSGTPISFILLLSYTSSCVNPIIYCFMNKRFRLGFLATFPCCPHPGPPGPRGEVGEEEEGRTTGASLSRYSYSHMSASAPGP
Procedure: (§1) For radioligand binding studies, the cells were harvested by cell scraping and resulting pellets immediately frozen at −80° C. (approximately 50×10^6 cells/pellet). Frozen cell pellets were defrosted on ice in 15 ml of assay buffer (composition; 10 mM HEPES, 130 mM NaCl, 4.7 mM KCl, 5 mM MgCl2, bacitracin 0.089; pH 7.2 at 21±3° C.) and then homogenized (setting 10, 7×3 s; Polytron; Brinkmann Instruments). The homogenate was centrifuged (800×g for 10 min) and the pellet discarded. The supernatant was re-centrifuged (39,800×g for 25 min) and the final pellet re-suspended in 20 ml assay buffer (cell concentration: 25×10^5 cells ml^−1). Protein concentration was determined using BCA Protein Assay Kit (Pierce, Rockford, Ill.). All binding assays were conducted in 96 well Multiscreen GF/B filter plates (Millipore, Billerica, Mass., USA) that were pre-soaked in assay buffer for 1 h. […] The bound radioactivity was separated by filtration using a Multiscreen Resist manifold (Millipore, Billericay, Mass., USA). The filters were washed three times with ice-cold PBS (pH 7.5) and radioactivity retained on the filters was measured by liquid scintillation counting using a TopCount (Packard BioScience, Boston, Mass.). All experiments were performed in triplicate.
(§2) Equilibrium dissociation constant (K1) values were assumed to be equal to the IC50 values obtained from the logistic curve fit as the radiolabel concentrations used in the assays were always below the KD of the radiolabel. The equilibrium dissociation constants (K1) values were calculated from the midpoint locations (IC50) following Cheng & Prusoff, eqn.
(§3) In order to investigate these variants, plasmid DNAs containing the respective variant canine CCK1 receptor cDNAs and the wild type cDNA were transiently transfected into HEK-293 cells using Lipofectamine 200 transfection reagent and Opti-MEM medium (Invitrogen). Cells were harvested at 48-72 hours after transfection and the pellets were frozen at −80° C. The cells were then harvested, assayed, and the data analyzed as described above.

[3] = molecular target: T3, canine CCK1 receptor (Canis lupus familiaris, UniProt Q5D0K2); test: competition binding of [125I]-BH-CCK-8S at cloned canine CCK1 receptor stably expressed in CHO-K cells
T3 construct: expressed in transfected cells
T3 sequence (Q5D0K2 1-428): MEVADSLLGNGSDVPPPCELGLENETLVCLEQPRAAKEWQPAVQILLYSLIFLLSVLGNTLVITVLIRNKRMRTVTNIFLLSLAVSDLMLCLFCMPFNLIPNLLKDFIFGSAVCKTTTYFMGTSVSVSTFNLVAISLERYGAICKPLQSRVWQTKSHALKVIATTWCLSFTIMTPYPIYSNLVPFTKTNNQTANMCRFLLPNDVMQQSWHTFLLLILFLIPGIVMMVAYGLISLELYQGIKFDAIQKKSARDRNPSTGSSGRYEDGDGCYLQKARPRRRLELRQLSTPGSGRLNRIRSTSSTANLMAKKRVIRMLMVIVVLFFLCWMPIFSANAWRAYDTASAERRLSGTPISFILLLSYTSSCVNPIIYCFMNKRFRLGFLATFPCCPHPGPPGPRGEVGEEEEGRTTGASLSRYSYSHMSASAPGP
Procedure: The plasmids described above were used for stable transfection into CHO-K cells (Chinese Hamster Ovary) (American Type Culture Collection, Rockville, Md.) using the Effectene transfection method (Qiagen, Chatsworth, Calif.) with 2 μg plasmid for each 100 mm^2 culture dish. These cells were maintained in Ham's F12 selection medium with 10% fetal bovine serum, 2 mM L-glutamine, penicillin (50 U ml^−1), streptomycin (50 mg ml^−1) and Geneticin (0.7 mg ml^−1) (Invitrogen) at 37° C. in a humidified incubator under an atmosphere containing 5% CO2. Media was changed every other day. Isolated Geneticin resistant colonies were picked from the 100 mm^2 dishes and grown to confluence in 6 well cluster dishes. 24 individual stable clones were used in a Fluorometric Imaging Plate Reader (FLIPR) assay with CCK-8S (0.01 nM-1 μM) to select a clone with a good signal-to-noise window for use in further experiments.
(§4) For radioligand binding studies, the cells were harvested by cell scraping and resulting pellets immediately frozen at −80° C. (approximately 50×10^6 cells/pellet). Frozen cell pellets were defrosted on ice in 15 ml of assay buffer (composition; 10 mM HEPES, 130 mM NaCl, 4.7 mM KCl, 5 mM MgCl2, bacitracin 0.089; pH 7.2 at 21±3° C.) and then homogenized (setting 10, 7×3 s; Polytron; Brinkmann Instruments). The homogenate was centrifuged (800×g for 10 min) and the pellet discarded. The supernatant was re-centrifuged (39,800×g for 25 min) and the final pellet re-suspended in 20 ml assay buffer (cell concentration: 25×10^5 cells ml^−1). Protein concentration was determined using BCA Protein Assay Kit (Pierce, Rockford, Ill.). All binding assays were conducted in 96 well Multiscreen GF/B filter plates (Millipore, Billerica, Mass., USA) that were pre-soaked in assay buffer for 1 h. […] Nonspecific binding was determined by inclusion of 10 μM 2-NAP (a CCK1 receptor selective antagonist; see, e.g., Hull et al., 1993, Br. J. Pharmacol., 108:734-740). All radioligand binding studies were conducted in the presence of the CCK2 receptor-selective antagonist PD-134,308 at a concentration estimated to occupy 99% of human CCK2 receptors (0.3 μM; se, e.g., Hughes et al., 1990, Proc. Natl. Acad. Sci. U.S.A., 87(17):6728-6732; Hunter et al., 1993, Mol. Pharmacol., 43:595-602). The bound radioactivity was separated by filtration using a Multiscreen Resist manifold (Millipore, Billericay, Mass., USA). The filters were washed three times with ice-cold PBS (pH 7.5) and radioactivity retained on the filters was measured by liquid scintillation counting using a TopCount (Packard BioScience, Boston, Mass.). All experiments were performed in triplicate.
as §2
(§5) Competition-inhibition studies were conducted on the canine and human CCK1 receptor using a cell-protein concentration within the linear range of the cell number curve (80 μg/ml, cell number curves not shown).

[4] = molecular target: T4, human CCK1 receptor (Homo sapiens, UniProt P32238); test: competition binding of [125I]-BH-CCK-8S at cloned human CCK1 receptor
T4 construct: expressed in transfected cells
T4 sequence (P32238 1-428): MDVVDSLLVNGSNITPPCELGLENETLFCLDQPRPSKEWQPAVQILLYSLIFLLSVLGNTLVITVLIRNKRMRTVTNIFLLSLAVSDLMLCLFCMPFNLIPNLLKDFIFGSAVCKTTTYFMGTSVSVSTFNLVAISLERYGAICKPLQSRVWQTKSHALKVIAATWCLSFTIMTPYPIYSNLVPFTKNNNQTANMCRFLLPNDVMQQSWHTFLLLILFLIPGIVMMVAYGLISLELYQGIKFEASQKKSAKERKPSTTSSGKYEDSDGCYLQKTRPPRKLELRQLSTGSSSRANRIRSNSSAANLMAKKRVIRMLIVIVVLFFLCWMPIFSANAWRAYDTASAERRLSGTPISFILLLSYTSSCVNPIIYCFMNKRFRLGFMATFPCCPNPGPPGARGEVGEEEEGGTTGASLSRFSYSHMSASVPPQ
Procedure: as §4, §2, §5

[5] = molecular target: T5, Canine CCK1: Variant #1 (Canis lupus familiaris, UniProt Q5D0K2, G258S/L413V/V400A); test: competition binding at variant #1 canine CCK1 receptor transiently transfected in HEK cells; details: Canine CCK1 variant #1, transiently transfected in HEK cells, n = 3, ± s.e. mean
T5 construct: plasmid DNAs containing the respective variant canine CCK1 receptor cDNAs and the wild type cDNA were transiently transfected; expressed in transfected cells; host or cells: HEK-293 cells, transient
T5 sequence (Q5D0K2 1-428 G258S/V400A/L413V): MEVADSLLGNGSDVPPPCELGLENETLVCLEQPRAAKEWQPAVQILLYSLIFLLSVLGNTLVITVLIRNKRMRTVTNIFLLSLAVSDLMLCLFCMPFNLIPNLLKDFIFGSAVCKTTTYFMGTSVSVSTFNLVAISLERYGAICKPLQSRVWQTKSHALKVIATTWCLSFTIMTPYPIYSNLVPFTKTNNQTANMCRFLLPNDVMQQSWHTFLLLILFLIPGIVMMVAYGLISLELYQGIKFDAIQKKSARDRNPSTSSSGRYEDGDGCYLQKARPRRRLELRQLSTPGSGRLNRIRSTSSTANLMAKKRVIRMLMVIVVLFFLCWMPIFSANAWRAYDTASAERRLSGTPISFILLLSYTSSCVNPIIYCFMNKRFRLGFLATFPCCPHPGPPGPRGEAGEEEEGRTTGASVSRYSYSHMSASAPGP
Procedure: as §1, §2, §3

[6] = molecular target: T6, canine CCK1 receptor variant #2 (canine, UniProt Q5D0K2 1-428); test: radioligand binding (20 pM [125I]-BH-CCK-8S) against increasing membrane protein, transiently transfected HEK cells
T6 construct: Six amino-acid differences from wild type; Transiently expressed in HEK-293 cells and assayed as membrane preparations; also called canine CCK1 variant #2 receptor
T6 chain: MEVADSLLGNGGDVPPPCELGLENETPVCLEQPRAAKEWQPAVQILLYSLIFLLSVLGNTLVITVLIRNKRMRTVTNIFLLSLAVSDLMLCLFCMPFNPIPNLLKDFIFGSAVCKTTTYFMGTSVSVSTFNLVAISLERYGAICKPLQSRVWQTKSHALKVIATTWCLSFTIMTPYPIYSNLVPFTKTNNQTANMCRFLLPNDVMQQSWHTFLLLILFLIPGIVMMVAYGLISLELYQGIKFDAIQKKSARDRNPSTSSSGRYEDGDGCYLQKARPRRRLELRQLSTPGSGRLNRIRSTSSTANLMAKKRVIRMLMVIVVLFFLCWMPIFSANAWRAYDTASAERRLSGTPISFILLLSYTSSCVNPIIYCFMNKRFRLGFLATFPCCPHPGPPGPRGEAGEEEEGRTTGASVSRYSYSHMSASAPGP

[7] = molecular target: T7, wild-type canine CCK1 receptor (canine, UniProt Q5D0K2 1-428); test: saturation radioligand binding, membranes of stably transfected CHO cells, first phase of the isotherm
T7 construct: Full-length receptor, stably expressed in CHO-K cells or transiently in HEK-293 cells; It was assayed as membrane preparations of those cells; also called canine cholecystokinin 1 receptor; control wild-type canine CCK1R protein
T7 sequence: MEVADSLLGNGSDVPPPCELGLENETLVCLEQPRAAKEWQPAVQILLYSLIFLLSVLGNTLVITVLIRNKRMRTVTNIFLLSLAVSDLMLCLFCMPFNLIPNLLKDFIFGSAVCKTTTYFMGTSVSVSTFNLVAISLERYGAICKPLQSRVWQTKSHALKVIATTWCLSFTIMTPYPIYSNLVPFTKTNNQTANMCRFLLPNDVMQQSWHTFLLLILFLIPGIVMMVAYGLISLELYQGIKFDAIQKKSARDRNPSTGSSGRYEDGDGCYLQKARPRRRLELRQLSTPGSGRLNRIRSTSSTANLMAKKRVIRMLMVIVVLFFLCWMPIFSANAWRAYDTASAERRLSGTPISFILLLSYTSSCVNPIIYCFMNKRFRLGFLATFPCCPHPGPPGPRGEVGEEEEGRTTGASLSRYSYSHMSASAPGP
Procedure: The homogenate was centrifuged (800×g for 10 min) and the pellet discarded. The supernatant was re-centrifuged (39,800×g for 25 min) and the final pellet re-suspended in 20 ml assay buffer (cell concentration: 25×10⁵ cells ml⁻¹). […] All binding assays were conducted in 96 well Multiscreen GF/B filter plates (Millipore, Billerica, Mass., USA) that were pre-soaked in assay buffer for 1 h. For competition studies, cell membranes (45 μl) were incubated with 60 μM [¹²⁵I]-BH-CCK-8S (50 μl) in the presence of competing ligand (15 μl) for 90 min (total volume of 150 μl). […] The bound radioactivity was separated by filtration using a Multiscreen Resist manifold (Millipore, Billericay, Mass., USA). The filters were washed three times with ice-cold PBS (pH 7.5) and radioactivity retained on the filters was measured by liquid scintillation counting using a TopCount (Packard BioScience, Boston, Mass.). All experiments were performed in triplicate.

[8] = Canine CCK2, [125I]-BH-CCK-8S radiolabel, n = 3, ± s.e. mean
[9] = read-out: pKI (affinity value, -log equilibrium dissociation constant) (converted)

For CN1C(=O)[C@@H](NC(=O)c2cc3ccccc3[nH]2)N=C(c2ccccc2)c2ccccc21 [L-364,718], the “nH (Hill slope)” value [1, 8] was 0.87 ± 0.06 and the Ki ([1]; Canine CCK2, [125I]-BH-CCK-8S radiolabel, n = 3, ± s.e. mean, read-out: pKI (affinity value, -log equilibrium dissociation constant) (converted)) was 24 nM.

For Cc1cccc(NC(=O)N[C@@H]2N=C(c3ccccc3)c3ccccc3N(C)C2=O)c1 [L-365,260, 3R(+)—N-(2,3-dihydro-1-methyl-2-oxo-5-phenyl-1H-1,4-benzodiazepin-3-yl)-N′-(3-methylphenyl)urea], the Ki [1] was 93.3 nM, the “nH (Hill slope)” value [1, 8] was 0.95 ± 0.08 and the “fold higher affinity at the canine CCK2 receptor compared to the canine CCK1 receptor” value ([1]; canine CCK2 over canine CCK1) was ~2.6 fold. For the same molecule, the “nH (Hill slope)” value [2] was 0.96 ± 0.32, the Ki [2, 9] was 219 nM and the Ki [3] was 245 nM. The “nH (Hill slope)” value ([3]; Canine CCK1, CHO-K cells, [125I]-BH-CCK-8S radiolabel, n = 3, ± s.e. mean) was 1.17 ± 0.09, the Ki [4] was 245 nM and the “nH (Hill slope)” value ([4]; Human CCK1, [125I]-BH-CCK-8S radiolabel, n = 3, ± s.e. mean) was 1.32 ± 0.14. For the same molecule, the “nH (Hill slope)” value [5] was 1.08 ± 0.33 and the Ki [5, 9] was 155 nM.

B1: [^125I]-BH-CCK-8S (peptide, UniProt P06307 96-103, looked up)
peptide: {BH(125I)}-D[sY]MGWMDF
modifications: not fully specified (C-terminus); ends and bridges not checked; also: sulfated, site not given here, 125I Bolton-Hunter conjugate, site not given here
notes: Radioligand; also called Bolton-Hunter conjugated sulfated CCK-8
With B1 the binding result [6] was “no binding (tested: 2500 µg/ml protein)” and the pKD [7] was 10.5 pKD (negative log of KD).
